The target in one assay is Neurotensin (Cavia porcellus, UniProt P32560).
The target of another assay is T1, Neurotensin/neuromedin N (Human, UniProt P30990).
T1 sequence (P30990 whole entry): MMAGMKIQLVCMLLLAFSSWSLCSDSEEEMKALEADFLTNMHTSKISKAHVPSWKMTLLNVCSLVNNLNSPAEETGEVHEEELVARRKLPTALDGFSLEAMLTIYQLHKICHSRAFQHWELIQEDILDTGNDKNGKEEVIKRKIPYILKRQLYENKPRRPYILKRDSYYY

For orientation: Ki means the dissociation constant of the complex between target and ligand, obtained from inhibition or displacement. With `COc1cccc(OC)c1-c1cc(C(=O)NC2(C(=O)O)C3CC4CC(C3)CC2C4)nn1-c1ccnc2cc(Cl)ccc12` (stereo not drawn), the Ki at Neurotensin is 3.9 nM.

On to `COc1cccc(OC)c1-c1cc(C(=O)NC2(C(=O)O)C3CC4CC(C3)CC2C4)nn1-c1ccc(C(=O)N(C)CCCN(C)C)cc1C(C)C` (stereo not drawn) [SR142948A], for which the Ki at Neurotensin is 0.17 nM; at Neurotensin/neuromedin N it was 0.28 nM.

(Values after BindingDB's records for PubMed 9023294 (Sanofi Recherche, 1997).)
